Measurements as given in US20190300882A1, “METHODS OF TREATING NEUROBLASTOMA AND REAGENTS THEREFOR” (GARVAN INSTITUTE OF MEDICAL RESEARCH, priority 2016, published 2019).

What was measured:
Assay type in all cases: cell-based
[1] = system: SK-N-DZ MYCN-amplified neuroblastoma cell line; assay: Secondary validation screen of synthetic lethal miRNAs with low dose IC30 chemotherapy, additional cell line; conditions: for Additional cell line Viability (% of control) SKNDZ DXR: miRNA mimic + low dose IC30 doxorubicin; for Additional cell line Viability (% of control) SKNDZ VCR: miRNA mimic + low dose IC30 vincristine; for Additional cell line Viability (% of control) SKNDZ Vehicle: miRNA mimic + vehicle
Description: (§1) KELLY cells were grown in 10% FCS/RPMI as described in Example 1 and reverse transfected in 384-well plate format with 25 nM of a miRNA from the Dharmacon microRNA mimic Library (version 16.0) using liquid-handling robot Calliper Sciclone ALH3000 according to the conditions described in Table 3. After 24 hours, media was changed using a BioTek 406. Media was again changed after 48 hours and 96 hours using a BioTek 406, and at each of those time points low dose IC30 of vincristine or doxorubicin was added to the culture. 144 hours post-transfection, cell viability was determined using CellTiter-Glo luminescent assay (Promega) at 1:2 dilution. Luminescence measurements were taken on the Synergy H4 high-throughput multimode microplate reader as described in Example 1. All screens were performed in duplicates. The experimental design and timeline for this screen are illustrated in FIGS. 5 and 6, respectively.
(§2) The secondary validation screens were performed in accordance with the genome-wide screens described in Example 1 and Example 2, respectively, with the exception that an additional MYCN-amplified neuroblastoma cell line (SK-N-DZ) was added to each screen.
(§3) Furthermore, five additional non-active miRNAs discovered to have no measureable effect across all treatment groups of the genome-wide screen (‘non-lethal’ miRNAs) were included as negative controls.

KELLY cells [2] = assay: Secondary validation screen of synthetic lethal miRNAs with low dose IC30 chemotherapy, cell viability; conditions: for Secondary screen Viability (% of control) Kelly DXR: miRNA mimic + low dose IC30 doxorubicin; for Secondary screen Viability (% of control) Kelly VCR: miRNA mimic + low dose IC30 vincristine; for Secondary screen Viability (% of control) Kelly Vehicle: miRNA mimic + vehicle
Description: as §1, §2, §3

KELLY cells [3] = assay: Primary miRNA mimic screen in combination with low dose IC30 of vincristine or doxorubicin, cell viability; conditions: for Primary screen Viability (% of control) Kelly DXR: miRNA mimic 25 nM + low dose IC30 doxorubicin; for Primary screen Viability (% of control) Kelly VCR: miRNA mimic 25 nM + low dose IC30 vincristine; for Primary screen Viability (% of control) Kelly Vehicle: miRNA mimic 25 nM + vehicle
Description: To systematically identify miRNAs that affect viability and survival of neuroblstoma cells in combination with chemotherapy, a further functional miRNA screen was performed using the 1200 miRNAs from the miRIDIAN miRNA mimic Library (version 16.0; Dharmacon) in combination with low dose IC30 of vincristine or doxorubicin in the two neuroblastoma cancer cell lines. In doing so, the inventors identified miRNAs which result in a lethal phenotype to neuroblastoma cells when administered in combination with low dose IC30 chemotherapy (hereinafter referred to as ‘synthetic lethal’ miRNAs). […] After 24 hours, media was changed using a BioTek 406. […] Luminescence measurements were taken on the Synergy H4 high-throughput multimode microplate reader as described in Example 1. All screens were performed in duplicates.

Substance	Additional cell line Viability (% of control) SKNDZ DXR [1]	Additional cell line Viability (% of control) SKNDZ VCR [1]	Additional cell line Viability (% of control) SKNDZ Vehicle [1]	Secondary screen Viability (% of control) Kelly DXR (KELLY cells [2])	Secondary screen Viability (% of control) Kelly VCR (KELLY cells [2])	Secondary screen Viability (% of control) Kelly Vehicle (KELLY cells [2])	Primary screen Viability (% of control) Kelly DXR (KELLY cells [3])	Primary screen Viability (% of control) Kelly VCR (KELLY cells [3])	Primary screen Viability (% of control) Kelly Vehicle (KELLY cells [3])
hsa-miR-100-5p (AACCCGUAGAUCCGAACUUGUG; chemistry not given here; listed as Homo sapiens)	48 % of control	69 % of control	98 % of control	43 % of control	43 % of control	69 % of control	34 % of control	48 % of control	68 % of control
hsa-miR-34c-5p (AGGCAGUGUAGUUAGCUGAUUGC; chemistry not given here; listed as Homo sapiens)	34 % of control	31 % of control	53 % of control	80 % of control	18 % of control	68 % of control	74 % of control	36 % of control	72 % of control
hsa-miR-3646 (AAAAUGAAAUGAGCCCAGCCCA; chemistry not given here; listed as Homo sapiens)	52 % of control	110 % of control	101 % of control	45 % of control	72 % of control	70 % of control	34 % of control	55 % of control	74 % of control
hsa-miR-3181 (AUCGGGCCCUCGGCGCCGG; chemistry not given here; listed as Homo sapiens)	38 % of control	83 % of control	91 % of control	61 % of control	96 % of control	108 % of control	34 % of control	57 % of control	94 % of control
hsa-miR-3151 (GGUGGGGCAAUGGGAUCAGGU; chemistry not given here; listed as Homo sapiens)	71 % of control	72 % of control	87 % of control	65 % of control	47 % of control	102 % of control	40 % of control	52 % of control	102 % of control
